According to US20170226072A1, “1,4-Disubstituted Piperidines, 1,4-Disubstituted Piperazines, 1,4-Disubstituted Diazepines, and 1,3-Disubstituted Pyrrolidine Compounds” (University of Kentucky Research Foundation, priority 2013, published 2017):
Several values for one entry are separate records, joined by “and”; a condition that tells them apart may be missing. Equal values may be shown once.

Columns and labels:
hERG channel = biological target: T1, hERG channel (Homo sapiens, UniProt Q12809); assay: [3H]Dofetilide binding assay, HEK-293 cell membrane preparation; details: HEK-293 cell membranes expressing hERG, 5 nM [3H]dofetilide; read-out: hERG [3H]Dofetilide Binding Inhibition Mean ± SEM (IC50)
T1 construct: expressed in transfected cells
T1 sequence (Q12809 whole entry): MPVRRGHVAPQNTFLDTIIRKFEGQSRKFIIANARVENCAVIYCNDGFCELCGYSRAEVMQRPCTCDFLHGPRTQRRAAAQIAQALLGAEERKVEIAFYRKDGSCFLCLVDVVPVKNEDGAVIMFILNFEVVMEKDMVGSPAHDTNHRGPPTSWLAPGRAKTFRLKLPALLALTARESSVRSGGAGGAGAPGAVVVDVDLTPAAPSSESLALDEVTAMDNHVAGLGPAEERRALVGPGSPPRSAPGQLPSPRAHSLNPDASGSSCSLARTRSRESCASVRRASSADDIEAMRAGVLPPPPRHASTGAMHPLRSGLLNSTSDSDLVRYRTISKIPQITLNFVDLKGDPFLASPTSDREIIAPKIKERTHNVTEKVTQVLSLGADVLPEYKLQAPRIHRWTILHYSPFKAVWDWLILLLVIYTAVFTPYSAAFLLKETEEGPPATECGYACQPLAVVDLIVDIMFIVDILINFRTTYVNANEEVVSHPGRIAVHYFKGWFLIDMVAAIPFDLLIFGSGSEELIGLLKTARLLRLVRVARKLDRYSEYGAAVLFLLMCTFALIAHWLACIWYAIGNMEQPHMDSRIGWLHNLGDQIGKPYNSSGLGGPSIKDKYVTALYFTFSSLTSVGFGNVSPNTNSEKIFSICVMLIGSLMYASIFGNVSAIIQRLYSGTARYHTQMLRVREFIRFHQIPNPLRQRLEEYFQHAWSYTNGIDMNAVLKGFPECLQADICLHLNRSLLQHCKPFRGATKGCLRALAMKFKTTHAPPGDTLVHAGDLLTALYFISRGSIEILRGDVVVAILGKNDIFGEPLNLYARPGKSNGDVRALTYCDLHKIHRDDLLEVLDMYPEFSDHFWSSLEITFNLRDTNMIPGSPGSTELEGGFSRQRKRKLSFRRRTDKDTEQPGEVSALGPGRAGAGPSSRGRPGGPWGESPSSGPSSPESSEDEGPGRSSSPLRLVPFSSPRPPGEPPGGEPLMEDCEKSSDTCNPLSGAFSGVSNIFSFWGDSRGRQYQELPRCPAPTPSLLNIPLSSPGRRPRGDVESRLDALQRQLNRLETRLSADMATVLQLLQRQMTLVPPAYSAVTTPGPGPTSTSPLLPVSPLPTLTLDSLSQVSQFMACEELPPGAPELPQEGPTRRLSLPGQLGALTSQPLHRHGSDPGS
Procedure: [^3H]Dofetilide Binding Assay, HEK-293 Cell Membrane Preparation
[^3H]Dofetilide binding assays were conducted using commercially available HEK-293 cell membranes which stably express the hERG channel. Membranes were suspended in assay buffer (50 mM Tris, 10 mM KCl, 1 mM MgCl2, pH 7.4) prior to the experiment. Assays were performed in duplicate in a total volume of 250 μL. Aliquots of the HEK-293 cell membrane suspension which contained 5 μg membrane protein were added to tubes containing assay buffer, 5 nM [^3H]dofetilide and a range of concentrations of analog (10 nM-100 μM). Nonspecific binding was determined in the presence of amitriptyline (1 mM). Samples were incubated for 1 hr. at 24° C., followed by rapid filtration. Radioactivity retained by the filters was determined by liquid scintillation spectrometry as described above for the [^3H]DA uptake assay. The affinity for the [^3H]dofetilide binding site on the hERG channel expressed in the HEK-293 cellular membrane was determined from the analog concentration response curves.

VMAT2 [1] = biological target: T2, VMAT2 (Rattus norvegicus, UniProt Q01827); assay: [3H]Dihydrotetrabenazine ([3H]DTBZ) binding assay, vesicular preparation; details: rat brain synaptic vesicles, 3 nM [3H]DTBZ; read-out: Inhibition of [3H]DTBZ binding (Ki) VMAT2
T2 construct: conducted using isolated synaptic vesicle preparations; from tissue; host or cells: rat striatum, isolated synaptic vesicles
T2 sequence (Q01827 whole entry): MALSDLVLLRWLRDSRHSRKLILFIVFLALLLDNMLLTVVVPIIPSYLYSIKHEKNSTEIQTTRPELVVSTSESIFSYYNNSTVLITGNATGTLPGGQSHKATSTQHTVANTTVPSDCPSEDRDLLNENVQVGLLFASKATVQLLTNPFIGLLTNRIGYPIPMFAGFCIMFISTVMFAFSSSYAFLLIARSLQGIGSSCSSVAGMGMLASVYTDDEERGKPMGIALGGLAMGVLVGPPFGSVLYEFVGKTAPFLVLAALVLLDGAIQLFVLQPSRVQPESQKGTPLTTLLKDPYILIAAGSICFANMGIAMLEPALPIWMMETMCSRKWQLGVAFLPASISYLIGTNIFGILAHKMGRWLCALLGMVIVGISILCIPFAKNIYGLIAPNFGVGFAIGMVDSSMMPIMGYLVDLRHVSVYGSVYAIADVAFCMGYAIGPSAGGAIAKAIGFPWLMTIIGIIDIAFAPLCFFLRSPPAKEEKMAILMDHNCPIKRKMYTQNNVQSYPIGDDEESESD

VMAT2 [2] = biological target: T2, VMAT2; assay: [3H]Dopamine ([3H]DA) uptake assay, vesicular preparation; assay type: biochemical
[3] = biological target: T3, dopamine transporter (DAT) (Rattus norvegicus, UniProt P23977); assay: [3H]DA uptake assay, striatal synaptosomal preparation; assay type: biochemical; details: rat striatal synaptosomes; read-out: DAT [3H]DA Uptake Inhibition Mean ± SEM (Ki)
T3 construct: from tissue; host or cells: rat striatum, synaptosomes
T3 sequence (P23977 whole entry): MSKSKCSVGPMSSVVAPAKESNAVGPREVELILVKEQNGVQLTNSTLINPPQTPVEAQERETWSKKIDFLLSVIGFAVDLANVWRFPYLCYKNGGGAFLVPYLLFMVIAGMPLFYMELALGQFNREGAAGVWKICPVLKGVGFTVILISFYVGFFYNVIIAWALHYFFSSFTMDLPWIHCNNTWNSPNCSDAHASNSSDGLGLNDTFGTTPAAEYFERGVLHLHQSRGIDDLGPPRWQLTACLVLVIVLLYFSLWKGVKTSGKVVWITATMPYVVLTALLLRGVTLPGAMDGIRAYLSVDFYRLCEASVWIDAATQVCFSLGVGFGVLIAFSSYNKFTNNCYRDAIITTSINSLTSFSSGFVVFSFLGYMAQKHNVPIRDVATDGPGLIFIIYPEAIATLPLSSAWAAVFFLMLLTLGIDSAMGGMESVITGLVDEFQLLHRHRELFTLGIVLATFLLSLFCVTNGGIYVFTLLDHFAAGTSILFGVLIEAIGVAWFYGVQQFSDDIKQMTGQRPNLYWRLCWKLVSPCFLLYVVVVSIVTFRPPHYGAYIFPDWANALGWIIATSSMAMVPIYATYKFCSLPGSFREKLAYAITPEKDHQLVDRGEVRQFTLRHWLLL
Procedure: [^3H]DA and [^3H]5-HT Uptake Assay, Synaptosomal Preparation
[^3H]DA and [^3H]5-HT uptake into striatal synaptosomes was determined to evaluate compound inhibition of the dopamine transporter (DAT) and the serotonin transporter (SERT), respectively. […] Homogenates were centrifuged at 2000 g for 10 min at 4° C., and resulting supernatants were centrifuged at 20,000 g for 17 min at 4° C. […] Assays were performed in duplicate in a total volume of 500 (for DAT assays) or 250 μL (for SERT assays). […] Reactions were terminated by addition of 3 mL of ice-cold assay buffer and subsequent filtration and radioactivity retained by the filters was determined by liquid scintillation spectrometry (Tri-Carb 2100TR liquid scintillation analyzer; PerkinElmer Life and Analytical Sciences, Boston, Mass.).

[4] = rat striatal synaptic vesicles, 0.1 μM [3H]DA, read-out: [3H]DA Uptake (Ki) VMAT2
[5] = synaptic vesicle preparations, summary of Table 1, read-out: inhibition of [3H]DA uptake, Ki

Ki (VMAT2 [1])	Ki (VMAT2 [2]; [4])	Ki [3]	Compound	IC50 (hERG channel)	Ki (VMAT2 [2]; [5])
380 ± 49 nM	94 ± 9.6 nM	5460 ± 120 nM	COc1cc(OC)c(OC)cc1CCC1CCN(CCc2ccccc2)CC1 [Compound 9]	8100 ± 585 nM	
350 ± 48 nM	41 ± 12 nM		COc1ccccc1CCN1CCC(CCc2ccc(F)cc2F)CC1 [Compound 31]	317 ± 24.8 nM	
1300 ± 170 nM	70 ± 5.1 nM		COc1ccc(CCN2CCC(CCc3ccc(F)cc3F)CC2)cc1 [Compound 33]	1070 ± 152 nM	
240 ± 38 nM	110 ± 19 nM		Fc1ccc(CCC2CCN(CCc3ccccc3Cl)CC2)c(F)c1 [Compound 34]		
1450 ± 240 nM	43 ± 14 nM		Fc1ccc(CCN2CCC(CCc3ccc(F)cc3F)CC2)cc1 [Compound 35]	201 ± 32.7 nM	
290 ± 64 nM	120 ± 8.5 nM		COc1ccc(CCC2CCN(CCc3ccccc3)CC2)c(F)c1 [Compound 36]		
330 ± 18 nM	76 ± 10 nM		COc1ccc(CCC2CCN(CCc3ccccc3OC)CC2)c(F)c1 [Compound 37]	2870 ± 760 nM	
190 ± 9 nM	83 ± 3.8 nM	2940 ± 270 nM	COc1cccc(CCN2CCC(CCc3ccc(OC)cc3F)CC2)c1 [Compound 38, 4-(2-fluoro-4-methoxyphenethyl)-1-(3-methoxyphenethyl)piperidine]	479 ± 64.3 nM	
1610 ± 78 nM	44 ± 3.3 nM		COc1ccc(CCN2CCC(CCc3ccc(OC)cc3F)CC2)cc1 [Compound 39]	299 ± 45.9 nM	
230 ± 15 nM	67 ± 21 nM		COc1ccc(CCC2CCN(CCc3ccccc3Cl)CC2)c(F)c1 [Compound 40]	1410 ± 166 nM	
600 ± 75 nM	60 ± 8.2 nM	3480 ± 415 nM	COc1ccc(CCC2CCN(CCc3ccc(F)cc3)CC2)c(F)c1 [Compound 41]	3600 ± 1220 nM	
1100 ± 87 nM	51 ± 3.5 nM		Fc1cc(F)cc(CCC2CCN(CCc3ccccc3)CC2)c1 [Compound 42]	258 nM	
410 ± 38 nM	34 ± 3.9 nM		COc1ccccc1CCN1CCC(CCc2cc(F)cc(F)c2)CC1 [Compound 43]	427 ± 134 nM	
250 ± 3 nM	28 ± 2.7 nM	1910 ± 568 nM	COc1cccc(CCN2CCC(CCc3cc(F)cc(F)c3)CC2)c1 [Compound 44]	477 ± 42.9 nM	
2030 ± 130 nM	120 ± 28 nM		COc1ccc(CCN2CCC(CCc3cc(F)cc(F)c3)CC2)cc1 [Compound 45]		
660 ± 58 nM	180 ± 68 nM		Fc1cc(F)cc(CCC2CCN(CCc3ccccc3Cl)CC2)c1 [Compound 46]		
1430 ± 280 nM	68 ± 16 nM		Fc1ccc(CCN2CCC(CCc3cc(F)cc(F)c3)CC2)cc1 [Compound 47]	440 ± 41.2 nM	
21700 ± 2080 nM	190 ± 63 nM		c1ccc(CCC2CCN(Cc3ccccc3)CC2)cc1 [Compound 48]		
9360 ± 1320 nM	70 ± 7.5 nM		COc1ccccc1CN1CCC(CCc2ccccc2)CC1 [Compound 49]	568 ± 122 nM	
12700 ± 4280 nM	190 ± 20 nM		COc1cccc(CN2CCC(CCc3ccccc3)CC2)c1 [Compound 50]		
44500 ± 17800 nM	270 ± 42 nM		Clc1ccccc1CN1CCC(CCc2ccccc2)CC1 [Compound 52]		
10100 ± 580 nM	210 ± 12 nM		Fc1ccc(CN2CCC(CCc3ccccc3)CC2)cc1 [Compound 53]		
3170 ± 550 nM	190 ± 17 nM		c1ccc(CCN2CCCN(CCc3ccccc3)CC2)cc1 [Compound 65]		
2240 ± 530 nM	100 ± 10 nM		COc1cccc(CCN2CCCN(CCc3cccc(OC)c3)CC2)c1 [Compound 67]	1120 ± 85.7 nM	
2880 ± 250 nM	250 ± 15 nM		COc1ccc(CCN2CCCN(CCc3ccc(OC)cc3)CC2)cc1 [Compound 68]		
930 ± 21 nM	170 ± 25 nM		Clc1ccccc1CCN1CCCN(CCc2ccccc2Cl)CC1 [Compound 69]		
5050 ± 770 nM	85 ± 5.2 nM		Fc1ccc(CCN2CCCN(CCc3ccc(F)cc3)CC2)cc1 [Compound 70]	57 ± 2.7 nM	

Continued, compound first:

Compound	Ki (VMAT2 [1])	Ki (VMAT2 [2]; [4])	Ki [3]	IC50 (hERG channel)	Ki (VMAT2 [2]; [5])
COc1ccccc1CCN1CCC(CCc2ccccc2)CC1 [Compound 1, 1-(2-methoxyphenethyl)-4-phenethylpiperidine]	255 ± 26 nM	30 ± 2 nM		534 ± 142 nM	
COc1ccc(CCN2CCC(CCc3ccccc3)CC2)cc1OC [Compound 3]	2800 ± 110 nM	56 ± 9 nM		402 ± 72.7 nM	
COc1ccc(CCN2CCC(CCc3ccccc3)CC2)cc1 [Compound 4]	1620 ± 190 nM	46 ± 3.7 nM		622 ± 215 nM	
COc1ccccc1CCN1CCC(Cc2ccccc2)CC1 [Compound 5]	2760 ± 310 nM	130 ± 15 nM			
COc1cccc(CCN2CCC(Cc3ccccc3)CC2)c1 [Compound 6]	1530 ± 100 nM	77 ± 9.8 nM		442 ± 221 nM	
COc1ccc(CCN2CCC(Cc3ccccc3)CC2)cc1OC [Compound 7]	2990 ± 170 nM	240 ± 34 nM			
COc1ccc(CCN2CCC(Cc3ccccc3)CC2)cc1 [Compound 8]	1940 ± 430 nM	180 ± 11 nM			
Clc1ccccc1CCN1CCC(CCc2ccccc2)CC1 [Compound 10]	380 ± 5.8 nM	47 ± 6.3 nM		666 ± 26.5 nM	
Fc1ccc(CCN2CCC(CCc3ccccc3)CC2)cc1 [Compound 11]	1820 ± 79 nM	32 ± 3.8 nM		353 ± 36 nM	
COc1cccc(CCC2CCN(CCc3ccccc3)CC2)c1 [Compound 14]	320 ± 15 nM	56 ± 8.6 nM		631 ± 88.8 nM	
COc1cccc(CCC2CCN(CCc3ccccc3OC)CC2)c1 [Compound 15]	320 ± 55 nM	40 ± 7.5 nM		790 ± 64.1 nM	
COc1cccc(CCC2CCN(CCc3cccc(OC)c3)CC2)c1 [Compound 16]	230 ± 19 nM	85 ± 10 nM		564 ± 131 nM	
COc1ccc(CCN2CCC(CCc3cccc(OC)c3)CC2)cc1 [Compound 17]	450 ± 130 nM	130 ± 23 nM		600 ± 87.8 nM	
COc1cccc(CCC2CCN(CCc3ccccc3Cl)CC2)c1 [Compound 18]	460 ± 98 nM	420 ± 49 nM			
COc1cccc(CCC2CCN(CCc3ccc(F)cc3)CC2)c1 [Compound 19]	960 ± 47 nM	69 ± 4 nM		409 ± 42.9 nM	
COc1ccc(CCC2CCN(CCc3ccccc3)CC2)cc1 [Compound 20]	510 ± 87 nM	110 ± 7 nM			
COc1ccc(CCC2CCN(CCc3ccccc3OC)CC2)cc1 [Compound 21]	420 ± 19 nM	83 ± 9 nM		323 ± 96.4 nM	
COc1ccc(CCC2CCN(CCc3cccc(OC)c3)CC2)cc1 [Compound 22]	230 ± 47 nM	75 ± 4 nM		479 ± 228 nM	
COc1ccc(CCC2CCN(CCc3ccc(OC)cc3)CC2)cc1 [Compound 23]	2470 ± 270 nM	160 ± 12 nM			
COc1ccc(CCC2CCN(CCc3ccc(F)cc3)CC2)cc1 [Compound 25]	470 ± 67 nM	60 ± 5 nM		1420 ± 384 nM	
COc1cccc(CCN2CCC(CCc3ccccc3OC)CC2)c1 [Compound 26, 1-(3-methoxyphenethyl)-4-(2-methoxyphenethyl)piperidine]	150 to 190 nM and 150 nM	13 ± 1.5 nM		607 ± 25.5 nM	9 to 20 nM
COc1ccc(CCN2CCC(CCc3ccccc3OC)CC2)cc1 [Compound 27]	500 ± 100 nM	43 ± 2.8 nM		479 ± 109 nM	
COc1ccccc1CCC1CCN(CCc2ccccc2Cl)CC1 [Compound 28, 1-(2-chlorophenethyl)-4-(2-methoxyphenethyl)piperidine]	190 ± 20 nM	20 ± 3 nM	1250 ± 307 nM	1190 ± 181 nM	9 to 20 nM
Fc1ccc(CCC2CCN(CCc3ccccc3)CC2)c(F)c1 [Compound 30]	530 ± 110 nM	53 ± 5.5 nM		552 ± 99.1 nM	
COc1cccc(CCN2CCC(CCc3ccc(F)cc3F)CC2)c1 [Compound 32]	270 ± 15 nM	29 ± 5.5 nM		327 ± 35.3 nM	
COc1ccc(CN2CCC(CCc3ccccc3)CC2)cc1 [Compound 51]	6230 ± 560 nM	250 ± 27 nM			
COc1ccc(CCN2CCN(CCc3ccc(OC)cc3)CC2)cc1 [Compound 57]	6630 ± 840 nM	410 ± 5 nM			
Clc1ccccc1CCN1CCN(CCc2ccccc2)CC1 [Compound 63]	1590 ± 260 nM	63 ± 6.9 nM	10400 ± 1850 nM	2840 ± 287 nM	
COc1ccccc1CCN1CCCN(CCc2ccccc2OC)CC1 [Compound 66]	2020 ± 110 nM	190 ± 26 nM			
